Measured values as given in publication PMC8210616, “Adjuvant-free peptide vaccine targeting Clec9a on dendritic cells can induce robust antitumor immune response through Syk/IL-21 axis” (Theranostics, 2021).
“Also recorded” adds a separate entry of the source. Values belong to the molecule of their own block, whether it stands above or below them. Ends that are not written are not given here. Peptide text beside a SMILES is read from it. * marks the point of attachment. biotin = biotin on the C-terminal Lys, O=C1N[C@H]2[C@H](CS[C@H]2CCCCC(=O)*)N1; Biotin = O=C1N[C@H]2[C@H](CS[C@H]2CCCCC(=O)*)N1

Tests used:
[1] = biological target: T1, mouse Clec9a (mClec9a) protein (Mus musculus, UniProt Q8BRU4); experiment: Binding affinity measurement by MST; conditions: ratio of MST KD values
T1 sequence (Q8BRU4 106-238 limits assumed): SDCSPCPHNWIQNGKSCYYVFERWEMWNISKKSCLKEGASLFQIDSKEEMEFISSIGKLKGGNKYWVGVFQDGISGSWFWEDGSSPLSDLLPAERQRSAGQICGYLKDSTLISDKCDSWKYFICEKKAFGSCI
Experimental: The affinity of the peptide to mouse Clec9a (mClec9a) protein was detected by microscale thermophoresis (MST) (NanoTemper Technologies GmhH, Germany). Briefly, mClec9a protein (Sino Biological, Beijing, China) was labeled with Red-NHS647 dye (NanoTemper Technologies GmhH, Germany), and the successfully labeled protein was used for affinity measurements. Peptides were diluted into serial concentrations with MST buffer. Equal volume of dye-labeled mClec9a protein was incubated with peptides at room temperature, the mixture was loaded onto capillaries (NanoTemper Technologies GmhH, Germany) and immediately analyzed by an MST instrument. The data were estimated by MO. Affinity Analysis v2.2.4.

mClec9a = biological target: T2, mClec9a (Mus musculus, UniProt Q8BRU4); experiment: Peptide binding assay by flow cytometry, mClec9a-transfected HEK-293T cells; conditions: biotinylated peptides 100 µM, 30 min on ice, SA-PE
T2 construct: expressed in transfected cells; host or cells: HEK-293T
T2 sequence (Q8BRU4 1-264 isoform Q8BRU4-4): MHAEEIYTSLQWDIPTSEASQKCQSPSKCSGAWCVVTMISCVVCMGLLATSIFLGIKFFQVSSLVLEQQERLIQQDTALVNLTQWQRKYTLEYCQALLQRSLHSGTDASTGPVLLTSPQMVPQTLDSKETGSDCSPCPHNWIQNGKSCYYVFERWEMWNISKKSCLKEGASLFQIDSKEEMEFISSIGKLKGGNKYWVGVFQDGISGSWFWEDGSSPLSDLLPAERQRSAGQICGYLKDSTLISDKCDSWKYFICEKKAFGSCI
Experimental: (§1) HEK-293T cells were transiently transfected with pIRES2-EGFP-mClec9a plasmid, or the mock pIRES2-EGFP plasmid for binding assay. Cells (3 × 10^5) were incubated with rat serum to block Fc receptors and different biotinylated peptides for 30 min on ice. After washing three times, cells were stained with streptavidin (SA)-PE for 30 min on ice, and the samples were analyzed for binding affinity by a flow cytometry after washing once.

HEK-293T^mock cells = experiment: Peptide binding assay by flow cytometry, mock-transfected HEK-293T cells; conditions: biotinylated peptides 100 µM, 30 min on ice, SA-PE
Experimental: as §1

[2] = system: spleen cDC1s (CD45^+CD11c^+XCR1^+); experiment: Uptake of biotinylated peptide by spleen cDC1s in vitro; format: cell-based; conditions: mouse splenocytes, 6.25 µM biotinylated peptide 30 min on ice, then 2 h at 37 °C, SA-PE flow cytometry
Experimental: Mouse splenocytes (5 × 10^5) were incubated with biotinylated GA peptide and CBP-12 for 30 min on ice, and then cells were washed three times and cultured for 2 h at 37 °C. Spleen cells were stained with anti-mouse CD45-FITC (30-F11), anti-mouse CD11c-PerCP-efluor 450 (N418), anti-mouse XCR1-BV650 (ZET) and anti-mouse CD11b-APC (M1/70). Then cells were fixed, permeabilized and further stained with SA-PE for peptide uptake analysis.

spleen cDC1s = experiment: Phagocytosis / targeting of cDC1s in vivo; design: species or system mouse; conditions: 100 μg biotinylated peptide s.c., sacrificed after 15 min, n = 3 per group
Text: Based on our previous study, Asp248 and Trp250 were two key residues for Clec9a to bind with WH peptide. In order to improve the binding of WH peptide to Clec9a, a silico residue scanning approach was applied to design high affinity WH mutants. The mutants were predicted by using the module of Residue Scanning mutates function, MOE (Molecular Operating Environments) software (2018 version, Chemical Computing Group Inc, Montreal, Quebec, Canada). Two hundred and twenty peptides were obtained, among which 15 peptides were selected and synthesized for experimental identification.
For phagocytosis in vivo, 6-week-old C57BL/6 mice were s.c. vaccinated with 100 μg biotinylated peptide. After 15 min of immunization, mice were sacrificed. Splenocytes were stained with anti-mouse CD45-FITC (30-F11), anti-mouse CD11c-PerCP-efluor […]
were fixed, permeabilized and further stained with SA-PE for CBP-12 targeting […]
For phagocytosis in vitro, FL-DCs were incubated with biotinylated GA peptide and CBP-12 for 30 min on ice, then cells were washed three times and culture for 2 h at 37 °C. FL-DCs were stained with anti-mouse CD45-FITC (30-F11), anti-mouse CD11c-PerCP-efluor 450 (N418), anti-mouse XCR1-BV650 (ZET) and CD11b-APC (M1/70) to mark cDC1s and cDC2s. Then FL-DCs were fixed, permeabilized and […]

FL-DCs = experiment: Uptake of peptide^biotin-SA-PE by FL-DCs, confocal microscopy; format: cell-based, mouse; conditions: for effect of endocytosis inhibitor on uptake of CBP-12 by FL-DCs: pre-incubation 1 h with inhibitor, then 50 μM CBP-12^biotin-SA-PE 2 h at 37 °C
Experimental: Biotinylated peptide was mixed with SA-PE in a molar ratio of 1: 3 to obtain SA-PE labeled peptide (peptide^biotin-SA-PE). FL-DCs from wild type (WT) or Clec9a^-/- mice was harvested and washed twice with PBS before use. […] After washing, cells were incubated with Hoechst 33342 (Beyotime Biotechnology, Beijing, China) for 1 h to stain the nucleus. Cells were analyzed with a confocal laser scanning microscopy (Leica TCS SP8, Wetzlar, Germany).

[3] = In vitro enzyme degradation of peptide in mouse serum; format: in vitro ADME; conditions: 10% (V/V) mouse serum saline solution, peptide 1 mM, 37 °C, sampled 0, 0.25, 0.5, 1 and 2 h, residual peptide by RP-HPLC
Experimental: further stained with SA-PE. CBP-12 uptake by cDC1s and cDC2s were tested with […]
In vitro enzyme degradation of peptide
Peripheral blood of mice was stand at room temperature for 1 h, centrifuged for 10 min and then the supernatant was acquired. The peptide (1 mM) was added into 10% (V/V) serum saline solution and incubated for 2 h at 37 ℃. The samples taken at different time points were added 90% (V/V) acetonitrile-glacial acetic acid mixture and centrifuged for 15 min, then the supernatants were collected. The content of the residual peptide in samples was analyzed at 0 h, 0.25 h, 0.5 h, 1 h and 2 h by […]
CBP-12-OVA targeting to Clec9a together with adjuvant treated tumor model C57BL/6 or Clec9a−/− mice were s.c. injected with 2 × 10^5 B16-OVA cells. Three days after the tumor implantation, the mice were treated weekly for total of three times, with either 100 μg peptide or normal saline and 30 μg CpG ODN 1826 as adjuvant.
Then the mice were sacrificed after five days of the last injection.
Animal immunization and ex vitro CTL priming without adjuvant
For animal immunization and ex vivo CTL priming, female C57BL/6 mice of 6 -8 weeks were immunized with 20 μg OVA257–264, GA-OVA, CBP-12-OVA, or normal saline s.c. injected once a week for total of three times. Five days after the last

[4] = system: IL-21 in cDC1s (CD11c^+XCR1^+); experiment: Intracellular cytokine staining for IL-21 in FL-DCs; format: cell-based, mouse
Experimental: FL-DCs were incubated with 100 μg/mL OVA257-264, GA-OVA, CBP-12-OVA or PBS and protein transport inhibitor cocktail at 37 °C for 6 h. For Syk phosphorylation inhibition assay, FL-DCs were incubated with 2.5 μM R406 (MCE, New Jersey, USA) for 1 h and then cultured with 100 μg/mL CBP-12-OVA and protein transport inhibitor cocktail at 37 °C for 6 h. IL-21 positive frequency was detected by ICS. R406 is an ATP-competitive Syk kinase inhibitor [26]. Cells stained with anti-mouse-CD11c-APC (N418), anti-mouse/rat XCR1-Brilliant Violet 650™ (ZET) and anti-mouse-IL-21-PE (FFA21) or Rat IgG2a-PE kappa Isotype Control (eBR2a) for IL-21 production were analyzed by a flow cytometry.

human Clec9a = human Clec9a (Homo sapiens, UniProt Q6UXN8); experiment: Binding to human Clec9a (data not shown)
[5] = biological target: mouse Clec9a (mClec9a) protein (mouse) (UniProt Q8BRU4); experiment: MST; mClec9a protein labeled with Red-NHS647 dye; peptides in serial dilution in MST buffer, room temperature; MO. Affinity Analysis v2.2.4
[6] = 50 µM peptide^biotin-SA-PE, 2 h, 37 °C, confocal

human Clec9a, sequence (Q6UXN8 whole entry): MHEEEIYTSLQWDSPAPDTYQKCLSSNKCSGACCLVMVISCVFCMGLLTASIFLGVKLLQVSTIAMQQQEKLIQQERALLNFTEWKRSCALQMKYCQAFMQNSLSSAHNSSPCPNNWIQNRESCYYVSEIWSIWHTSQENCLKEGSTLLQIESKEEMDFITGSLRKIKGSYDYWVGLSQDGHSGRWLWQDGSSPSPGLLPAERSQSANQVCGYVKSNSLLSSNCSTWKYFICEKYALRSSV

Molecule: CC(C)[C@H](NC(=O)[C@H](CO)NC(=O)[C@H](CO)NC(=O)[C@H](Cc1c[nH]cn1)NC(=O)[C@H](Cc1ccccc1)NC(=O)[C@H](CCCNC(=N)N)NC(=O)[C@@H]1CCCN1C(=O)[C@@H](N)Cc1c[nH]c2ccccc12)C(=O)N[C@@H](CCCNC(=N)N)C(=O)N[C@@H](Cc1c[nH]cn1)C(=O)N[C@H](C(=O)N[C@@H](Cc1c[nH]cn1)C(=O)NCC(=O)NCC(=O)NCC(=O)N[C@@H](CCCCNC(=O)CCCC[C@@H]1SC[C@@H]2NC(=O)N[C@@H]21)C(=O)O)[C@@H](C)O [CBP-12] (H-WPRFHSSVRHTHGGGK(Biotin)-OH; N-terminus and C-terminus assumed)
- affinity for mClec9a relative to WH peptide [1]: 37.2 fold
- binding to mClec9a-overexpressing HEK-293T cells (mClec9a): higher binding affinity than the other peptides
- binding to mock plasmid transfected HEK-293T cells (HEK-293T^mock cells): did not bind
- uptake by spleen cDC1s in vitro [2]: strong uptake
- targeting of cDC1s versus cDC2s in vivo (spleen cDC1s): could target to cDC1s but not cDC2s
- fluorescence signal in FL-DCs derived from Clec9a^-/- mice (FL-DCs; [6]): much lower
- fluorescence signal in FL-DCs of WT mice (FL-DCs; [6]): strong fluorescence signal
- stability in mouse serum [3]: resists protease hydrolysis; also recorded: stable in mouse serum for 1 h
- secretion of IL-21 from cDC1s, ICS ([4]; FL-DCs, 100 µg/mL peptide, 6 h, 37 °C): stimulated the secretion of IL-21 from cDC1s
- binding to human Clec9a (human Clec9a): could bind

Molecule: COc1cc(Nc2ncc(F)c(Nc3ccc4c(n3)NC(=O)C(C)(C)O4)n2)cc(OC)c1OC [R406, reference compound]
- effect on CBP-12-OVA induced IL-21 secretion from cDC1s ([4]; 2.5 µM R406 for 1 h, then 100 µg/mL CBP-12-OVA 6 h): suppress the secretion of IL-21

Molecule: N=C(N)NC(=O)c1nc(Cl)c(N)nc1N [amiloride, reference compound]
- effect of endocytosis inhibitor on uptake of CBP-12 by FL-DCs (FL-DCs): inhibited

Molecule: CN(C)CCCN1c2ccccc2Sc2ccc(Cl)cc21 [chlorpromazine, reference compound]
- effect of endocytosis inhibitor on uptake of CBP-12 by FL-DCs (FL-DCs): inhibited

- Kd [5]: 0.61 µM
Molecule: WPRFHSSVRHTHGGGK(biotin) [CBP-12^biotin (12-mer Clec9a binding peptide, …-GGG-K^biotin)]

- Kd [5]: 22.7 µM
Molecule: WPRFHSSVFHTHGGGK(biotin) [WH^biotin (WH peptide, …-GGG-K^biotin)]
